The values below come from patent US20130190407A1, “CALCIUM RECEPTOR-ACTIVE MOLECULES” (NPS Pharmaceuticals, Inc., priority 1991, published 2013).

The assay addresses T1, HuPCaR 5.2 (Homo sapiens, UniProt P41180, E1011Q/Q926R).
T1 construct: appear to be full-length clones corresponding to the 5 Kb mRNA; expressed in transfected cells; host or cells: HEK293 cells, hygromycin-selected pool, Cep4B vector with the HuPCaR 5.2 insert
T1 sequence (P41180 20-1088 isoform P41180-2 Q936R/E1021Q): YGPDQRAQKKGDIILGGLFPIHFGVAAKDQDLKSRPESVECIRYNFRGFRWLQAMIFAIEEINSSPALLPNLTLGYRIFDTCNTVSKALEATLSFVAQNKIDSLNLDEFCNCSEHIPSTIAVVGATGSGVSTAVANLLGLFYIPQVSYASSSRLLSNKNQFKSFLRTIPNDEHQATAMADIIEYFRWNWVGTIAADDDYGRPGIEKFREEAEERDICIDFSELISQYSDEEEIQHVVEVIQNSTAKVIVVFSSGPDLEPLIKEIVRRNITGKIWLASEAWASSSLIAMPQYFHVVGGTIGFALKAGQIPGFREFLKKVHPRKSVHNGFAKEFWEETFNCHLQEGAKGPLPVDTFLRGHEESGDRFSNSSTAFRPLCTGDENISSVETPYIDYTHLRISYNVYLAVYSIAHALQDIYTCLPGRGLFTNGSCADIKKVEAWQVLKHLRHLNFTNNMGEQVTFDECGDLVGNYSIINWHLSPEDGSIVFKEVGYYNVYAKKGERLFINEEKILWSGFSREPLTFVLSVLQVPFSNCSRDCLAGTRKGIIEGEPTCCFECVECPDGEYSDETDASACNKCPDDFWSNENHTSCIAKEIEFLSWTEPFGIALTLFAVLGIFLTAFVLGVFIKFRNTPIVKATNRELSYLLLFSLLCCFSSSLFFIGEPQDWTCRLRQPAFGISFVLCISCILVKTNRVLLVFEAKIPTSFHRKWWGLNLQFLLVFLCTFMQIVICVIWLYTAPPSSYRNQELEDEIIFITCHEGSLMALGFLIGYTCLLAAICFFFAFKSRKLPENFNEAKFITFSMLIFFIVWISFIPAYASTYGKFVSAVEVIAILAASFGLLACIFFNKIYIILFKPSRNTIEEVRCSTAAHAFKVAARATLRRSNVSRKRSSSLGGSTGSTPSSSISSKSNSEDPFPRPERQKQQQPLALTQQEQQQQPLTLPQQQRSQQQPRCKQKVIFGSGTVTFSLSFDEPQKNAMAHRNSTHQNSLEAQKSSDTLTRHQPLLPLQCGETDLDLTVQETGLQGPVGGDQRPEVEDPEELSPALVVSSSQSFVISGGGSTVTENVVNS
The assay can be described thus: [Ca2+]i (fura-2) in HEK293 cells transfected with HuPCaR 5.2. The format is cell-based. Here is the method: Cells obtained from the pool of hygromycin selected HEK293 cells transfected with Cep4B containing the HuPCaR 5.2 insert were plated on collagen coated Aklar squares which had been placed into individual wells of 12-well tissue culture plates. Two to six days later, medium was removed and the cells washed with balanced salt solution and 1 ml of buffer containing 1 μM fura2-AM, 1 mM CaCl2 and 0.1% BSA and 1 mM CaCl2. Measurements of fluorescence in response to calcium receptor agonists were performed at 37° C. in a spectrofluorimeter using excitation and emission wavelengths of 340 and 510 nm, respectively. For signal calibration, Fmax was determined after addition of ionomycin (40 μM) and the apparent Fmin was determined by addition of 0.3 M EGTA, 2.5 M Tris-HCl; pH 10.

In the case of `COc1cccc([C@@H](C)NCCCc2ccccc2)c1` (single isomer, unassigned) [NPS R-467], the intracellular calcium result is “Robust increases in intracellular calcium”.
